Columns and labels:
[1] = test system: β-amyloid production by 7W WT APP751 CHO cells; assay: Measurement of Aβ1-40 and Aβ1-42 by ELISA in culture medium (Example 1, calcium channel blockers); type: cell-based, Chinese hamster
Description: Chinese hamster ovary (CHO) cells, stably transfected with human APP751 (7W WT APP751 CHO cells) were used. See, e.g., Koo and Squazzo, J. Biol. Chem., Vol. 269, Issue 26, 17386-17389, July, 1994. The cells were maintained in DMEM medium supplemented with 10% fetal bovine serum and 1× mixture of penicillin/streptomycin/fungizone/glutamine mixture (Cambrex, MD) geneticin as selecting agent in 75 cm^2 cell culture flasks.
The 7W WT APP751 CHO cells were plated in 24-well cell culture plates in quadruplicate, containing 1 ml of culture medium, and treated with various calcium channel blocker compounds for 4 hours, 24 hours or 48 hours at 37° C. and 5% CO2. All test compounds were diluted in dimethyl sulfoxide (DMSO) before being added to the cultured confluent 7W WT APP751 CHO cells. The culture medium was collected and diluted 5-fold for the 4 hours assay and 50-fold for the 24 hour assay before being assayed by ELISAs for Aβ1-40 and Aβ1-42, respectively. Concentrations of Aβ1-40 and Aβ1-42, expressed in pg/ml, were determined using commercially available ELISAs (Biosource, CA) in a colorimetric assay using labeled antibodies detected spectrophotometrically.
G-sec Inhib XIX, SKF 96365, 2-APB, felodipine, FPL, clotrimazole, tetrandrine, R24571, and econazole are available, as Calbiochem products from EMD Biosciences, Inc., La Jolla, Calif.; nilvadipine, nitrendipine and amlodipine (amlodipine besylate) are available, e.g., from Fujisawa, Osaka, Japan; thapsigargin, BAPTA-AM and TA9 (Tyrphostin A9) are available, e.g., as a Sigma product from Sigma-Aldrich Corp., St. Louis, Mo.; and felodipine, diltiazem, S(−)Bay K8644, R(+)Bay K8644, MRS 1845, SR 33805, loperamide, and isradipine are available from Tocris Cookson Inc., Ellisville, Mo.

Row | Compound | melting point [°C] | further results
1 | CC1=C(C(=O)OC(C)(C)C)C(c2ccc(Cl)cc2)C(C(=O)OC(C)(C)C)=C(C)N1 [Example 23, Di-tert-butyl 4-(4-chlorophenyl)-1,4-dihydro-2,6-dimethylpyridine-3,5-dicarboxylate] | 191.5 to 192.5 | –
2 | CCOC(=O)C1=C(C)NC(C)=C(C(=O)OCC)C1c1cccc(Br)c1 [Example 24, Diethyl 4-(3-bromophenyl)-1,4-dihydro-2,6-dimethylpyridine-3,5-dicarboxylate] | 125 to 126 | –
3 | CC1=C(C(=O)OC(C)(C)C)C(c2cccc(Br)c2)C(C(=O)OC(C)(C)C)=C(C)N1 [Example 25, Di-tert-butyl 4-(3-bromophenyl)-1,4-dihydro-2,6-dimethylpyridine-3,5-dicarboxylate] | 195 to 196 | –
4 | CC1=C(C(=O)OC(C)(C)C)C(c2ccc(Br)cc2)C(C(=O)OC(C)(C)C)=C(C)N1 [Example 27, Di-tert-butyl 4-(4-bromophenyl)-1,4-dihydro-2.6-dimethylpyridine-3,5-dicarboxylate] | 206 to 207 | –
5 | CC1=C(C(=O)OC(C)(C)C)C(c2ccccc2I)C(C(=O)OC(C)(C)C)=C(C)N1 [Example 28, Di-tert-butyl 1,4-dihydro-4-(2-iodophenyl)-2.6-dimethylpyridine-3,5-dicarboxylate] | 184 to 185 | –
6 | CCOC(=O)C1=C(C)NC(C)=C(C(=O)OCC)C1c1cccc(Cl)c1Cl [Example 31, Diethyl 4-(2,3-dichlorophenyl)-1,4-dihydro-2,6-dimethylpyridine-3,5-dicarboxylate] | 125 to 126 | –
7 | CC1=C(C(=O)OC(C)(C)C)C(c2cccc(Cl)c2Cl)C(C(=O)OC(C)(C)C)=C(C)N1 [Example 32, Di-tert-butyl 4-(2,3-dichlorophenyl)-1,4-dihydro-2,6-dimethylpyridine-3,5-dicarboxylate] | 144 to 145 | –
8 | CCOC(=O)C1=C(C)NC(C)=C(C(=O)OCC)C1c1cc(Cl)ccc1Cl [Example 34, Diethyl 4-(2,5-dichlorophenyl)-1,4-dihydro-2,6-dimethylpyridine-3,5-dicarboxylate] | 166.5 to 167.5 | –
9 | CC1=C(C(=O)OC(C)(C)C)C(c2cc(Cl)ccc2Cl)C(C(=O)OC(C)(C)C)=C(C)N1 [Example 35, Di-tert-butyl 4-(2,5-dichlorophenyl)-1,4-dihydro-2,6-dimethylpyridine-3,5-dicarboxylate] | 181 to 183 | –
10 | CCOC(=O)C1=C(C)NC(C)=C(C(=O)OCC)C1c1c(Cl)cccc1Cl [Example 36, Diethyl 4-(2,6-dichlorophenyl)-1,4-dihydro-2,6-dimethylpyridine-3,5-dicarboxylate] | 134 to 135 | –
11 | CCOC(=O)C1=C(C)NC(C)=C(C(=O)OCC)C1c1cc(Cl)cc(Cl)c1 [Example 37, Diethyl 4-(3,5-dichlorophenyl)-1,4-dihydro-2,6-dimethylpyridine-3,5-dicarboxylate] | 102 to 104 | –
12 | CCOC(=O)C1=C(C)NC(C)=C(C(=O)OCC)C1c1cccc(F)c1F [Example 38, Diethyl 4-(2,3-difluorophenyl)-1,4-dihydro-2,6-dimethylpyridine-3,5-dicarboxylate] | 161 to 162 | –
13 | C=CCOC(=O)C1=C(C)NC(C)=C(C(=O)OCC=C)C1c1ccc(Br)cc1 [Example 40, Diallyl 4-(4-bromophenyl)-1,4-dihydro-2,6-dimethylpyridine-3,5-dicarboxylate] | 130 to 131 | –
14 | CC1=C(C(=O)OC(C)(C)C)C(c2ccc(F)c(Br)c2)C(C(=O)OC(C)(C)C)=C(C)N1 [Example 42, Di-tert-butyl 4-(3-bromo-4-fluorophenyl)-1,4-dihydro-2,6-dimethylpyridine-3,5-dicarboxylate] | 171 to 172 | –
15 | CCOC(=O)C1=C(C)NC(C)=C(C(=O)OCC)C1c1ccc(Br)cc1F [Example 43, Diethyl 4-(4-bromo-2-fluorophenyl)-1,4-dihydro-2,6-dimethylpyridine-3,5-dicarboxylate] | 154 to 155 | –
16 | CC1=C(C(=O)OC(C)(C)C)C(c2ccc(Br)cc2F)C(C(=O)OC(C)(C)C)=C(C)N1 [Example 44, Di-tert-butyl 4-(4-bromo-2-fluorophenyl)-1,4-dihydro-2,6-dimethylpyridine-3,5-dicarboxylate] | 187 to 188 | –
17 | Clc1ccc(C(c2ccc(Cl)cc2)[n+]2ccn(CC(OCc3ccc(Cl)cc3Cl)c3ccc(Cl)cc3Cl)c2)cc1.[Cl-] (stereo not drawn) [Example R24571, 1-[bis(p-chlorophenyl)methyl]-3-[2-(2,4-di-chloro-β-(2,4-dichlorobenzyl-oxy)phenethyl)]-imidazolium chloride] | – | concentration of Aβ1-40 compared to controls ([1]; 5 μM (FIG. 4)): significantly decreased; concentration of total β-amyloid compared to controls ([1]; 5 μM (FIG. 4)): significantly decreased
18 | C#CCN1C(C)=C(C(=O)OC)C(c2cccc([N+](=O)[O-])c2)C(C(=O)OCC)=C1C (stereo not drawn) [MRS 1845, N-propargylnitrendipine] | – | concentration of Aβ1-40 compared to controls ([1]; 30 μM (FIG. 3)): significantly decreased; concentration of total β-amyloid compared to controls ([1]; 30 μM (FIG. 3)): significantly decreased

Second part, led by results:

Row | melting point [°C] | Compound | further results
19 | 116 to 117 | COCCOC(=O)C1=C(C)NC(C)=C(C(=O)OCCOC)C1c1ccc(Br)cc1 [Example 46, Bis(2-methoxyethyl) 4-(4-bromophenyl)-1,4-dihydro-2,6-dimethylpyridine-3,5-dicarboxylate] | –
20 | 118 to 119 | CCOC(=O)C1=C(C)NC(C)=C(C(=O)OCC)C1c1cc(Br)ccc1F [Example 47, Diethyl 4-(5-bromo-2-fluorophenyl)-1,4-dihydro-2,6-dimethylpyridine-3,5-dicarboxylate] | –
21 | 173 to 174 | CC1=C(C(=O)OC(C)(C)C)C(c2cc(Br)ccc2F)C(C(=O)OC(C)(C)C)=C(C)N1 [Example 48, Di-tert-butyl 4-(5-bromo-2-fluorophenyl)-1,4-dihydro-2,6-dimethylpyridine-3,5-dicarboxylate] | –
22 | 178 to 179 | CC1=C(C(=O)OC(C)(C)C)C(c2cccc(F)c2)C(C(=O)OC(C)(C)C)=C(C)N1 [Example 50, Di-tert-butyl 4-(3-fluorophenyl)-1,4-dihydro-2,6-dimethylpyridine-3,5-dicarboxylate] | –
23 | 150 to 151 | CCOC(=O)C1=C(C)NC(C)=C(C(=O)OCC)C1c1ccc(F)cc1 [Example 51, Diethyl 4-(4-fluorophenyl)-1,4-dihydro-2,6-dimethylpyridine-3,5-dicarboxylate] | –
24 | 149 to 150 | CC1=C(C(=O)OC(C)(C)C)C(c2ccc(F)cc2)C(C(=O)OC(C)(C)C)=C(C)N1 [Example 52, Di-tert-butyl 4-(4-fluorophenyl)-1,4-dihydro-2,6-dimethylpyridine-3,5-dicarboxylate] | –
25 | 162 to 163 | COCC1=C(C(=O)OC)C(c2ccc(Br)cc2)C(C(=O)OC)=C(COC)N1 [Example 53, Dimethyl 4-(4-bromophenyl)-1,4-dihydro-2,6-bis(methoxymethyl)pyridine-3,5-dicarboxylate] | –
26 | 168 to 169 | CCOC(=O)C1=C(C)N(Cc2ccccc2)C(C)=C(C(=O)OCC)C1c1ccc(Br)cc1 [Example 54, Diethyl 1-benzyl-4-(4-bromophenyl)-1,4-dihydro-2,6-dimethylpyridine-3,5-dicarboxylate] | –
27 | 197 to 198 | CC1=C(C(=O)OC(C)(C)C)C(c2ccc(C)cc2C)C(C(=O)OC(C)(C)C)=C(C)N1 [Example 55, Di-tert-butyl 1,4-dihydro-2,6-dimethyl-4-(2,4-dimethylphenyl)pyridine-3,5-dicarboxylate] | –
28 | 125 to 127 | CCOC(=O)C1=C(C)NC(C)=C(C(=O)OC)C1c1ccccc1Cl (stereo not drawn) [Example 56, 3-Ethyl 5-methyl 4-(2-chlorophenyl)-1,4-dihydro-2,6-dimethylpyridine-3,5-dicarboxylate] | –
29 | 183 to 184 | COC(=O)C1=C(C)NC(C)=C(C(C)=O)C1c1ccccc1Cl (stereo not drawn) [Example 57, Methyl 5-acetyl-4-(2-chlorophenyl)-1,4-dihydro-2,6-dimethylpyridine-3-carboxylate] | –
30 | 134.5 to 135.5 | CCOC(=O)C1=C(C)NC(C)=C(C(=O)OC)C1c1ccccc1Br (stereo not drawn) [Example 58, 3-Ethyl 5-methyl 4-(2-bromophenyl)-1,4-dihydro-2,6-dimethylpyridine-3,5-dicarboxylate] | –
31 | 146 to 148 | COC(=O)C1=C(C)NC(C)=C(C(C)=O)C1c1ccccc1Br (stereo not drawn) [Example 59, Methyl 5-acetyl-4-(2-bromophenyl)-1,4-dihydro-2,6-dimethylpyridine-3-carboxylate] | –
